Inhibition data for ten compounds are collected here from patent US6242461A, “Use of aryl substituted azabenzimidazoles in the treatment of HIV and AIDS related diseases” (Pfizer Inc., priority 2000, dated 2001).

Each structure is given as a SMILES string.

The assay concerns the target HIV-1 RT (Human immunodeficiency virus type 1 group M subtype B, UniProt P04585). The experiment in a line: HIV Reverse Transcriptase Assay (RNA-dependent DNA polymerase activity, 3H-dCTP incorporation). The assay is classed as biochemical. To be noted: 60 nM HIV-RT, tRNA-Lys3 primer/viral RNA template, 45 minutes, room temperature, 0.7% DMSO. The protocol:
Utilizing the Reverse Transcriptase (RT) Assay described below, compounds can be tested for their ability to inhibit the RNA-dependent DNA polymerase activity of HIV-1 RT. Compounds described in the Examples which appear below, were so tested.
HIV Reverse Transcriptase Assay:
HIV reverse transcriptase activity is assessed by following the incorporation of ^3 H-dCTP into newly synthesized DNA using the natural tRNA^Lys3 primer annealed to a viral RNA template sequence. Assays are performed in a final volume of 100 μL in 96-well plates. Briefly, assay buffer (50 mM Tris pH 7.5, 50 mM NaCl, 5 mM MgCl2), primer/template (10-60 nM), dNTPs (dATP, dGTP, dTTP; 100 nM each), and ^3 H-dCTP (180 nM) are combined, and the reaction is initiated with 60 nM HIV-RT. After 45 minutes at room temperature, the assay is quenched with 0.1 M EDTA and harvested onto a DEAE filter using a Skatron Harvester with a solution of 5% Na2 HPO4 -2% sodium pyrophosphate. The filter mats are dried and placed into a plastic bag with 10 ml of scintillant, and counted on a Wallac BetaPlate reader. Non-specific activity is determined by adding 0.1 M EDTA at the start of the assay.
To assess the activity of compounds on HIV-RT activity, compounds are added to the assay prior to addition of enzyme. Compounds are dissolved in 14% DMSO (0.7% final), and tested at 32, 10, 3.2, 1.0, 0.32, and 0.10 μM in triplicate. % Inhibition is calculated according to the following equation: […]
For `Cc1nc2cnccc2n1-c1ccc(Cn2c(=O)sc3ccccc32)cc1` [Example 1, 3-[4-(2-Methyl-imidazo[4,5-c]pyridin-1-yl)-benzyl]-3H-benzothiazol-2-one], 10 µM produced 78% inhibition.
Regarding `Cc1nc2cnccc2n1-c1ccc(Cn2c(=O)sc3cc(F)ccc32)cc1` [Example 2, 6-Fluoro-3-[4-(2-methyl-imidazo[4,5-c]pyridin-1-yl)-benzyl]-3H-benzothiazol-2-one], 10 µM produced 76% inhibition.
Then `CCc1nc2cnccc2n1-c1ccc(Cn2c(=O)sc3ccccc32)cc1` [Example 3, 3-[4-(2-Ethyl-imidazo[4,5-c]pyridin-1-yl)-benzyl]-3H-benzothiazol-2-one], with 72%; and `CC(C)c1nc2cnccc2n1-c1ccc(Cn2c(=O)sc3ccccc32)cc1` [Example 4, 3-[4-(2-lsopropyl-imidazo[4,5-c]pyridin-1-yl)-benzyl]-3H-benzothiazol-2-one], with 23%.
Consider `Cc1ccc2c(c1)sc(=O)n2Cc1ccc(-n2c(C)nc3cnccc32)cc1` [Example 5, 6-Methyl-3-[4-(2-methyl-imidazo[4,5-c]pyridin-1-yl)-benzyl]-3H-benzothiazol-2-one], for which at 10 µM the inhibition was 30%.
Turning to `COc1ccc2c(c1)sc(=O)n2Cc1ccc(-n2c(C)nc3cnccc32)cc1` [Example 6, 6-Methoxy-3-[4-(2-methyl-imidazo[4,5-c]pyridin-1-yl)-benzyl]-3H-benzothiazol-2-one], the inhibition (usually the drop in the measured response relative to a control, in per cent) at 10 µM turned out to be 22%.
Compound `Cc1nc2cnccc2n1-c1ccc(Cn2c(=O)sc3cc(Cl)ccc32)cc1` [Example 7, 6-Chloro-3-[4-(2-methyl-imidazo[4,5-c]pyridin-1-yl)-benzyl]-3H-benzothiazol-2-one] returned an inhibition at 10 µM of 45%.
As for `COc1ccc2sc(=O)n(Cc3ccc(-n4c(C)nc5cnccc54)cc3)c2c1` [Example 8, 5-Methoxy-3-[4-(2-methyl-imidazo[4,5-c]pyridin-1-yl)-benzyl]-3H-benzothiazol-2-one], the inhibition at 10 µM turned out to be 41%.
For the compound `Cc1nc2cnccc2n1-c1ccc(Cn2c(=O)oc3ccccc32)cc1` [Example 13, 3-[4-(2-Methyl-imidazo[4,5-c]pyridin-1-yl)-benzyl]-3H-benzooxazol-2-one], the inhibition at 10 µM came to 61%.
Compound `Cc1nc2ccccc2n1Cc1ccc(-n2c(C)nc3cnccc32)cc1` [Example 16, 2-Methyl-1-[4-(2-methyl-benzoimidazol-1-ylmethyl)-phenyl]1H-imidazo[4,5-c]pyridine] had an inhibition at 10 µM of 20%.
